# Reference: patent publication US10253002B2, “Compounds and methods of treating infections” (Neoculi Pty Ltd., priority 2013, dated 2019)
# Read-outs that look alike come from different tables or passages of the source.
# Columns and labels:
# S. pneumoniae isolates = test: MBC, Example 5; format: cell-based, Streptococcus pneumoniae
# Description: [Micro-broth dilutions and 96 well trays are prepared by the following method: 90 μL of 4% LHB:CAMHB is aliquotted into all wells using a multichannel pipette. 90 μL of working antimicrobial stocks were no serial diluted down the tray by a 1:2 dilution. Negative broth controls and dilution control were taken into account when planning the set up of a 96 well tray.] 10 μL of bacterial suspension was then added to the appropriate wells in the 96 well tray. Appropriate positive (no antimicrobial), negative (no antimicrobial or bacteria) and negative dilution (a serial dilution control of antimicrobial and broth) controls were included in each assay. […] The MBC was determined by a 99.95% inhibition of S. pneumoniae, taking into account the dilution factor. MICs and MBCs were determined in quadruplicate and the mode was taken as the representative value. The MIC50, MIC90 and MIC range and MBC50, MBC90 and MBC range were determined according to CLSI standards. The MIC50 and MIC90, or MBC50 and MBC90, are defined by the lowest concentrations which, when all the MICs and MBCs of the isolates are arranged from lowest to highest, inhibited the 50th and 90th percentile of the total amount of isolates, respectively.
# S. pneumoniae strain D39 = test: microbe, parasite or virus in culture; format: cell-based; details: Streptococcus pneumoniae
# Description: Macro-broth dilutions were prepared as above. […] Samples were centrifuged at a relative centrifugal force (RCF) of 101.45×g for 10 min and washed in 50 mL of phosphate buffered saline (PBS) twice to remove any residual antimicrobial, and/or bacterial end products and media. Washed bacteria were resuspended and MICs were performed.
structure (smiles),measurement,setting,value
CC1(C)S[C@@H]2[C@H](NC(=O)[C@H](N)c3ccccc3)C(=O)N2[C@H]1C(=O)O [Ampicillin],MBC,"S. pneumoniae isolates; Streptococcus pneumoniae, isolate P21, Table 22, CAMHB diluent for NCL062, read-out: MBC",0.045 µg/mL
same,MBC,"S. pneumoniae isolates; Streptococcus pneumoniae, isolate WCH57, Table 22, CAMHB diluent for NCL062, read-out: MBC",0.09 µg/mL
same,MBC,"S. pneumoniae isolates; Streptococcus pneumoniae, isolate WCH158, Table 22, CAMHB diluent for NCL062, read-out: MBC",0.022 µg/mL
same,MBC,"S. pneumoniae isolates; Streptococcus pneumoniae, pneumococcal isolate A66.1, read-out: MBC",0.045 µg/mL
same,MBC,"S. pneumoniae isolates; Streptococcus pneumoniae, pneumococcal isolate D39, read-out: MBC",0.023 µg/mL
same,MBC,"S. pneumoniae isolates; Streptococcus pneumoniae, pneumococcal isolate EF3030, read-out: MBC",0.023 µg/mL
same,MBC,"S. pneumoniae isolates; Streptococcus pneumoniae, pneumococcal isolate L82016, read-out: MBC",0.023 µg/mL
same,MBC,"S. pneumoniae isolates; Streptococcus pneumoniae, pneumococcal isolate P9, read-out: MBC",0.023 µg/mL
same,MBC,"S. pneumoniae isolates; Streptococcus pneumoniae, pneumococcal isolate P21, read-out: MBC",0.023 µg/mL
same,MBC,"S. pneumoniae isolates; Streptococcus pneumoniae, pneumococcal isolate TIGR4, read-out: MBC",0.023 µg/mL
same,MBC,"S. pneumoniae isolates; Streptococcus pneumoniae, pneumococcal isolate WCH43, read-out: MBC",0.023 µg/mL
same,MBC,"S. pneumoniae isolates; Streptococcus pneumoniae, pneumococcal isolate WCH46, read-out: MBC",0.045 µg/mL
same,MBC,"S. pneumoniae isolates; Streptococcus pneumoniae, pneumococcal isolate WCH57, read-out: MBC",0.023 µg/mL
same,MBC,"S. pneumoniae isolates; Streptococcus pneumoniae, pneumococcal isolate WCH77, read-out: MBC",0.023 µg/mL
same,MBC,"S. pneumoniae isolates; Streptococcus pneumoniae, pneumococcal isolate WCH86, read-out: MBC",0.023 µg/mL
same,MBC,"S. pneumoniae isolates; Streptococcus pneumoniae, pneumococcal isolate WCH89, read-out: MBC",0.023 µg/mL
same,MBC,"S. pneumoniae isolates; Streptococcus pneumoniae, pneumococcal isolate WCH92, read-out: MBC",0.09 µg/mL
same,MBC,"S. pneumoniae isolates; Streptococcus pneumoniae, pneumococcal isolate WCH137, read-out: MBC",0.023 µg/mL
same,MBC,"S. pneumoniae isolates; Streptococcus pneumoniae, pneumococcal isolate WCH158, read-out: MBC",0.023 µg/mL
same,MBC,"S. pneumoniae isolates; Streptococcus pneumoniae, pneumococcal isolate WCH184, read-out: MBC",0.045 µg/mL
same,MBC,"S. pneumoniae isolates; Streptococcus pneumoniae, pneumococcal isolate WCH211, read-out: MBC",0.023 µg/mL
same,MBC,"S. pneumoniae isolates; Streptococcus pneumoniae, pneumococcal isolate WU2, read-out: MBC",0.023 µg/mL
same,MBC,"S. pneumoniae isolates; Streptococcus pneumoniae, all S. pneumoniae isolates, read-out: MBC50",0.023 µg/mL
same,MBC,"S. pneumoniae isolates; Streptococcus pneumoniae, all S. pneumoniae isolates, read-out: MBC90",0.023 µg/mL
same,MBC Range,S. pneumoniae isolates; all S. pneumoniae isolates,0.011 to 0.09 µg/mL
same,MBC,S. pneumoniae isolates; pneumococcal isolate WCH16,Autolysis
same,MBC,"S. pneumoniae strain D39; D39, 6 h, read-out: MBC of D39 following exposure to NCL-812 for 6 hrs",0.023 µg/mL
same,MIC,"S. pneumoniae strain D39; D39, 6 h, read-out: MIC of D39 following exposure to NCL-812 for 6 hrs.",0.045 µg/mL
same,MBC,"S. pneumoniae strain D39; D39, read-out: Original MBC of D39",0.023 µg/mL
same,MIC,"S. pneumoniae strain D39; D39, read-out: Original MIC of D39",0.023 µg/mL
